In ChEMBL document CHEMBL4813944 (Eur J Med Chem, 2021):
Calls of active or inactive are those of the source. The rule behind the calls is not given here.

Assays:
[1] = Cytotoxicity against human SH-SY5Y cells assessed as cell viability at 10 uM measured after 24 hrs by calcein-AM staining based fluorescence analysis; settings: read-out: Activity
[2] = Cytotoxicity against human SH-SY5Y cells assessed as cell viability at 0.1 uM measured after 24 hrs by calcein-AM staining based fluorescence analysis; settings: read-out: Activity
[3] = Cytotoxicity against human SH-SY5Y cells assessed as cell viability at 1 uM measured after 24 hrs by calcein-AM staining based fluorescence analysis; settings: read-out: Activity
[4] = Inhibition of salsolinol-induced mitochondrial depolarization in human SH-SY5Y cells assessed as mitochondrial membrane potential at 10 uM measured after 24 hrs by JC-1 staining based flow cytometry (reference value: 45.3 +/-2.09%); assay type: functional; parameters: scale not given: the % may be the effect or the level left
SH-SY5Y [5] = experiment: Neuroprotective activity against glutamate-induced neurotoxicity in human SH-SY5Y cells assessed as reduction in cell death at 0.1 to 1 uM measured after 24 hrs by PI staining based assay; assay type: functional; settings: dose 0.1-1 µM
SH-SY5Y [6] = experiment: Inhibition of salsolinol-induced apoptosis in human SH-SY5Y cells assessed as caspase 3/7 activity at 1 uM incubated for 24 hrs using Ac-DEVD-AMC as substrate by fluorescence analysis (reference value: 100%); assay type: functional; parameters: scale not given: the % may be the effect or the level left
[7] = Inhibition of glutamate-induced mitochondrial depolarization in human SH-SY5Y cells assessed as mitochondrial membrane potential at 10 uM incubated for 1 hr by JC10 dye based fluorescence analysis (reference value: 31.2 +/-4.6%); assay type: functional; parameters: scale not given: the % may be the effect or the level left
[8] = Inhibition of salsolinol-induced mPTP opening in human SH-SY5Y cells assessed as fold change in fluorescence intensity at 10 uM measured after 24 hrs by calcein AM/CoCl2 based fluorescence microscopic analysis (reference value: 0.49 +/-0.02); assay type: functional
SH-SY5Y [9] = experiment: Inhibition of glutamate-induced apoptosis in human SH-SY5Y cells assessed as caspase 3/7 activity at 10 uM incubated for 1 hr using Ac-DEVD-AMC as substrate by fluorescence analysis (reference value: 100%); assay type: functional; parameters: scale not given: the % may be the effect or the level left
SH-SY5Y [10] = experiment: Inhibition of glutamate-induced oxidative stress in human SH-SY5Y cells assessed as superoxide radical formation at 10 uM measured after 4 hrs by DHE staining based fluorescence spectrophotometry (reference value: 100%); assay type: functional; parameters: scale not given: the % may be the effect or the level left
SH-SY5Y [11] = experiment: Inhibition of salsolinol-induced apoptosis in human SH-SY5Y cells assessed as caspase 3/7 activity at 10 uM incubated for 24 hrs using Ac-DEVD-AMC as substrate by fluorescence analysis (reference value: 100%); assay type: functional; parameters: scale not given: the % may be the effect or the level left
SH-SY5Y [12] = experiment: Neuroprotective activity against salsolinol-induced neurotoxicity in human SH-SY5Y cells assessed as cell death at 10 uM measured after 24 hrs by PI staining based analysis (reference value: 100%); assay type: functional
SH-SY5Y [13] = experiment: Inhibition of Salsolinol-induced oxidative stress in human SH-SY5Y cells assessed as reduction in superoxide radical formation at 1 uM measured after 24 hrs by DHE staining based fluorescence microscopy; assay type: functional, cell-based
SH-SY5Y [14] = experiment: Inhibition of salsolinol-induced apoptosis in human SH-SY5Y cells assessed as appearance of necrotic cells along with early and late apoptotic cells at 10 uM measured after 24 hrs by AO/PIstaining based fluorescence microscopy; assay type: functional, cell-based
SH-SY5Y [15] = experiment: Inhibition of Salsolinol-induced oxidative stress in human SH-SY5Y cells assessed as superoxide radical formation at 1 uM measured after 24 hrs by DHE staining based fluorescence spectrophotometry (reference value: 100%); assay type: functional; parameters: scale not given: the % may be the effect or the level left
[16] = Inhibition of salsolinol-induced mPTP opening in human SH-SY5Y cells assessed as fold change in fluorescence intensity at 1 uM measured after 24 hrs by calcein AM/CoCl2 based fluorescence microscopic analysis (reference value: 0.49 +/-0.02); assay type: functional
SH-SY5Y [17] = experiment: Inhibition of salsolinol-induced mitochondrial depolarization in human SH-SY5Y cells assessed as recovery of mitochondrial membrane potential measured after 24 hrs by JC-1 staining based flow cytometry; assay type: functional, cell-based
SH-SY5Y [18] = experiment: Inhibition of Salsolinol-induced oxidative stress in human SH-SY5Y cells assessed as superoxide radical formation at 10 uM measured after 24 hrs by DHE staining based fluorescence spectrophotometry (reference value: 100%); assay type: functional; parameters: scale not given: the % may be the effect or the level left
SH-SY5Y [19] = experiment: Neuroprotective activity against salsolinol-induced neurotoxicity in human SH-SY5Y cells assessed as cell viability at 1 uM measured after 24 hrs by calcein-AM staining based fluorescence analysis (reference value: 70.49 +/-0.51%); assay type: functional; settings: read-out: Activity
SH-SY5Y [20] = experiment: Neuroprotective activity against glutamate-induced neurotoxicity in human SH-SY5Y cells assessed as cell death at 10 uM measured after 24 hrs by PI staining based assay (reference value: 100%); assay type: functional
[21] = Inhibition of salsolinol-induced mPTP opening in human SH-SY5Y cells assessed as fold change in fluorescence intensity at 0.5 uM measured after 24 hrs by calcein AM/CoCl2 based fluorescence microscopic analysis (reference value: 0.49 +/-0.02); assay type: functional
SH-SY5Y [22] = experiment: Neuroprotective activity against salsolinol-induced neurotoxicity in human SH-SY5Y cells assessed as cell viability at 0.5 uM measured after 24 hrs by calcein-AM staining based fluorescence analysis (reference value: 70.49 +/-0.51%); assay type: functional; settings: read-out: Activity
SH-SY5Y [23] = experiment: Neuroprotective activity against salsolinol-induced neurotoxicity in human SH-SY5Y cells assessed as cell death at 0.5 uM measured after 24 hrs by PI staining based analysis (reference value: 100%); assay type: functional
SH-SY5Y [24] = experiment: Inhibition of glutamate-induced apoptosis in human SH-SY5Y cells assessed as caspase 3/7 activity at 0.5 uM incubated for 1 hr using Ac-DEVD-AMC as substrate by fluorescence analysis (reference value: 100%); assay type: functional; parameters: scale not given: the % may be the effect or the level left
SH-SY5Y [25] = experiment: Neuroprotective activity against salsolinol-induced neurotoxicity in human SH-SY5Y cells assessed as reduction in cell death at 0.1 to 10 uM measured after 24 hrs by PI staining based analysis; assay type: functional; settings: dose 0.1-10 µM

## C=C(C)[C@@H]1CC[C@]2(C(=O)O)CC[C@]3(C)[C@H](C=C[C@@H]4[C@@]5(C)Cc6sc(N7CCOCC7)nc6C(C)(C)[C@@H]5CC[C@]43C)[C@@H]12
[1]
  viability at 24 h, 10 µM: 87%
[2]
  viability at 24 h, 0.1 µM: 91.3%
[3]
  viability at 24 h, 1 µM: 90%

## C=C(C(=O)OCc1cn([C@@H]2O[C@H](COC(C)=O)[C@@H](OC(C)=O)[C@H](OC(C)=O)[C@H]2OC(C)=O)nn1)[C@@H]1CC[C@]2(COC(C)=O)CC[C@]3(C)[C@H](CC[C@@H]4[C@@]5(C)CC[C@H](OC(C)=O)C(C)(C)[C@@H]5CC[C@]43C)[C@@H]12
[4]
  Activity: 89.2%
SH-SY5Y [5]
  Activity: Active
SH-SY5Y [6]
  Activity: 81.8%
[7]
  Activity: 74.7%
[8]
  fold change (FC): 1.2
SH-SY5Y [9]
  Activity: 90.9%
SH-SY5Y [10]
  Activity: 82.2%
SH-SY5Y [11]
  Activity: 79.5%
SH-SY5Y [12]
  Activity: 62.6%
SH-SY5Y [13]
  inhibition: Active
[1]
  viability at 24 h, 10 µM: 128%
SH-SY5Y [14]
  Activity: Active
SH-SY5Y [15]
  Activity: 74.5%
[16]
  fold change (FC): 0.75
SH-SY5Y [17]
  inhibition: Dose-Dependent Effect
SH-SY5Y [18]
  Activity: 77.2%
[2]
  viability at 24 h, 0.1 µM: 115%
SH-SY5Y [19]
  viability at 1 µM: 91.7%
[3]
  viability at 24 h, 1 µM: 138%
SH-SY5Y [20]
  Activity: 75.1%

## COC(=O)[C@]12CCC(C)(C)C[C@@H]1[C@H]1C=C[C@@H]3[C@@]4(C)CC(SC#N)C(=O)C(C)(C)[C@@H]4CC[C@@]3(C)[C@]1(C)CC2 (stereo partly drawn)
[1]
  viability at 24 h, 10 µM: 99.2%
[2]
  viability at 24 h, 0.1 µM: 100%
[3]
  viability at 24 h, 1 µM: 107%

## CC1(C)CC[C@]23CC[C@]4(C)[C@H](CC[C@@H]5[C@@]6(C)CC(C#N)=C(O)C(C)(C)[C@@H]6CC[C@]54C)[C@H]2[C@H]1OC3
[1]
  viability at 24 h, 10 µM: 98.8%
[2]
  viability at 24 h, 0.1 µM: 93.1%
[3]
  viability at 24 h, 1 µM: 93.8%

## C/C=C/C[C@@H](C)[C@@H](O)[C@H]1C(=O)N[C@@H](CC)C(=O)N(C)CC(=O)N(C)[C@@H](CC(C)C)C(=O)N[C@@H](C(C)C)C(=O)N(C)[C@@H](CC(C)C)C(=O)N[C@@H](C)C(=O)N[C@H](C)C(=O)N(C)[C@@H](CC(C)C)C(=O)N(C)[C@@H](CC(C)C)C(=O)N(C)[C@@H](C(C)C)C(=O)N1C [CYCLOSPORINE]
[21]
  fold change (FC): 0.67
SH-SY5Y [22]
  viability at 0.5 µM: 99.3%
SH-SY5Y [23]
  Activity: 74.5%
SH-SY5Y [24]
  Activity: 89.1%

## C=C(Cn1cc(-c2cccnc2)nn1)[C@@H]1CC[C@]2(C(=O)O)CC[C@]3(C)[C@H](CC[C@@H]4[C@@]5(C)CC[C@H](O)C(C)(C)[C@@H]5CC[C@]43C)[C@@H]12
[1]
  viability at 24 h, 10 µM: 133%
SH-SY5Y [25]
  Activity: inactive
[2]
  viability at 24 h, 0.1 µM: 103%
SH-SY5Y [19]
  viability at 1 µM: 81.7%
[3]
  viability at 24 h, 1 µM: 116%
